Experimental findings from patent US20230085307A1, “PYRIDAZINONE COMPOUND AND HERBICIDE” (NISSAN CHEMICAL CORPORATION, priority 2019, published 2023) are described below.

One test has as its system chickweed. The experiment in a line: Test Example 5: herbicidal effect by foliage application, plastic box (Table 20, symbol P). The following applies: amount of applied herbicide 320 g/ha; foliage application after 14-day growth; evaluated three weeks after application. Type of test: in vivo, common chickweed (Stellaria media). In short, it runs like this:
(§1)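 Foliar spray test: emulsion formulation diluted in water to a set application rate, sprayed onto 14-day-old plants raised in diluvial soil at 25° C to 30° C under glass. Both herbicidal effect and crop effect rated visually three weeks later.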

Another test has as its system green foxtail. The experiment in a line: Test Example 5: herbicidal effect by foliage application, plastic box (Table 20, symbol G). Type of test: in vivo, green foxtail (Setaria viridis). The note with it: amount of applied herbicide 320 g/ha; foliage application after 14-day growth; evaluated three weeks after application. In short, it runs like this:
as §1

The subject of the next test is persian speedwell. The experiment in a line: Test Example 5: herbicidal effect by foliage application, plastic box (Table 20, symbol R). Type of test: in vivo, Persian speedwell (Veronica persica). The note with it: amount of applied herbicide 320 g/ha; foliage application after 14-day growth; evaluated three weeks after application. In short, it runs like this: as §1

Another test concerns windgrass. The experiment in a line: Test Example 5: herbicidal effect by foliage application, plastic box (Table 20, symbol L). Type of test: in vivo, windgrass (Apera spica-venti). The note with it: amount of applied herbicide 320 g/ha; foliage application after 14-day growth; evaluated three weeks after application. In short, it runs like this:
as §1

The subject of another test is blackgrass. The test can be described thus: Test Example 5: herbicidal effect by foliage application, plastic box (Table 20, symbol J). Type of test: in vivo, blackgrass (Alopecurus myosuroides). The following applies: amount of applied herbicide 320 g/ha; foliage application after 14-day growth; evaluated three weeks after application. In short, it runs like this: as §1

Test [1] concerns barnyard grass. The test can be described thus: Test Example 5: herbicidal effect by foliage application, plastic box (Table 20, symbol H). The note with it: amount of applied herbicide 320 g/ha; foliage application after 14-day growth; evaluated three weeks after application. Type of test: in vivo, barnyard grass (Echinochloa crus-galli). In short, it runs like this:
as §1

A further test deals with Chinese sprangletop. The experiment in a line: Test Example 3: herbicidal effect by foliage application, Wagner pot (Table 18, symbol D). The following applies: 320 g/ha. Type of test: in vivo, chinese sprangletop (Leptochloa chinensis). In short, it runs like this: (§2)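 Plants were sown in alluvial soil held under 0.1–0.5 cm standing water and grown 14 days in a greenhouse at 25–30 °C. An emulsifiable formulation, water-diluted to the set dose, was then sprayed onto the foliage, and effects were scored three weeks later using previously defined criteria.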

The subject of the next test is Japanese bulrush. The experiment in a line: Test Example 1: herbicidal activity, application before weed generation under submerged conditions (Table 16, symbol B). Type of test: in vivo, Japanese bulrush (Schoenoplectus juncoides). The following applies: amount of applied herbicide 320 g/ha. In short, it runs like this: (§3)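 Emulsion formulation, water-diluted to set dose, was put onto the flooded surface (4 cm depth, alluvial soil) the same day weeds were sown and 2.5-leaf rice transplanted. After 3 weeks at 25-30 °C under glass, each species was rated 0 (≤5% kill) to 5 (≥90% kill).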

The test system of a further test is redroot pigweed. The experiment in a line: Test Example 5: herbicidal effect by foliage application, plastic box (Table 20, symbol N). Type of test: in vivo, redroot pigweed (Amaranthus retroflexus). The note with it: amount of applied herbicide 320 g/ha; foliage application after 14-day growth; evaluated three weeks after application. In short, it runs like this:
as §1

Another test deals with late watergrass. The test can be described thus: Test Example 1: herbicidal activity, application before weed generation under submerged conditions (Table 16, symbol A). Type of test: in vivo, late watergrass (Echinochloa oryzicola). The following applies: amount of applied herbicide 320 g/ha. In short, it runs like this: as §3
The test system of test [2] is barnyard grass. The test can be described thus: Test Example 3: herbicidal effect by foliage application, Wagner pot (Table 18, symbol H). Type of test: in vivo, barnyard grass (Echinochloa crus-galli). The note with it: 320 g/ha. In short, it runs like this: as §2
The test system of a further test is rice flat sedge. The test can be described thus: Test Example 3: herbicidal effect by foliage application, Wagner pot (Table 18, symbol E). Type of test: in vivo, rice flat sedge (Cyperus iria). The following applies: 320 g/ha. In short, it runs like this: as §2
For another test, the system named is oval-leafed pondweed. The experiment in a line: Test Example 1: herbicidal activity, application before weed generation under submerged conditions (Table 16, symbol C). Type of test: in vivo, oval-leafed pondweed (Monochoria vaginalis). The note with it: amount of applied herbicide 320 g/ha. In short, it runs like this: as §3
Another test concerns lambsquarters. The test can be described thus: Test Example 5: herbicidal effect by foliage application, plastic box (Table 20, symbol O). Type of test: in vivo, lambsquarters (Chenopodium album). The following applies: amount of applied herbicide 320 g/ha; foliage application after 14-day growth; evaluated three weeks after application. In short, it runs like this: as §1
The next test deals with velvetleaf. The experiment in a line: Test Example 5: herbicidal effect by foliage application, plastic box (Table 20, symbol M). Type of test: in vivo, velvetleaf (Abutilon theophrasti). The following applies: amount of applied herbicide 320 g/ha; foliage application after 14-day growth; evaluated three weeks after application. In short, it runs like this:
as §1

The subject of the next test is southern crabgrass. The test can be described thus: Test Example 5: herbicidal effect by foliage application, plastic box (Table 20, symbol F). The following applies: amount of applied herbicide 320 g/ha; foliage application after 14-day growth; evaluated three weeks after application. Type of test: in vivo, southern crabgrass (Digitaria ciliaris). In short, it runs like this: as §1

The test system of another test is Italian ryegrass. The test can be described thus: Test Example 5: herbicidal effect by foliage application, plastic box (Table 20, symbol K). Type of test: in vivo, Italian ryegrass (Lolium multiflorum). The note with it: amount of applied herbicide 320 g/ha; foliage application after 14-day growth; evaluated three weeks after application. In short, it runs like this: as §1

The test system of another test is wild oat. The test can be described thus: Test Example 5: herbicidal effect by foliage application, plastic box (Table 20, symbol I). The note with it: amount of applied herbicide 320 g/ha; foliage application after 14-day growth; evaluated three weeks after application. Type of test: in vivo, wild oat (Avena fatua). In short, it runs like this: as §1

`Cc1nn(C)c(=O)c(-c2c(-c3ccccc3C(F)(F)F)sc3c(Cl)cccc23)c1O` [4-070]: the “Herbicidal effect by foliage application, P: chickweed” value (shortened to “Herbicidal effect … P: chickweed”) with chickweed was 5 (Herbicidal rate of 90% or more (almost completely withered)). Also, in the test on green foxtail, the “Herbicidal effect by foliage application, G: green foxtail” value (from here on “Herbicidal effect … green foxtail”) is recorded as 0 (Herbicidal rate of 5% or less (almost no effect)). Moreover, the “Herbicidal effect by foliage application, R: persian speedwell” value (“Herbicidal effect … persian speedwell” below) with persian speedwell is reported as 5 (Herbicidal rate of 90% or more (almost completely withered)). The “Herbicidal effect by foliage application, L: windgrass” value (shortened to “Herbicidal effect … windgrass”) in the test on windgrass is 0 (Herbicidal rate of 5% or less (almost no effect)). For the same molecule, in the test on blackgrass, the “Herbicidal effect by foliage application, J: blackgrass” value (“Herbicidal effect … blackgrass” for short) is 0 (Herbicidal rate of 5% or less (almost no effect)). Besides, the “Herbicidal effect by foliage application, H: barnyard grass” value (“Herbicidal effect … H: barnyard grass” for short) with barnyard grass [1] is 0 (Herbicidal rate of 5% or less (almost no effect)). For the same molecule, in the test on Chinese sprangletop, the “herbicidal effect on Chinese sprangletop (D)” value (from here on “herbicidal effect … (D)”) was 4 (Herbicidal rate of 70% or more and less than 90%). For the same molecule, in the test on Japanese bulrush, the “Herbicidal effect, B: Japanese bulrush” value is 2 (Herbicidal rate of 20% or more and less than 40%). Further, the “Herbicidal effect by foliage application, N: redroot pigweed” value (from here on “Herbicidal effect … redroot pigweed”) with redroot pigweed was 3 (Herbicidal rate of 40% or more and less than 70%). Moreover, in the test with late watergrass, the “Herbicidal effect, A: late watergrass” value is 3 (Herbicidal rate of 40% or more and less than 70%). The “herbicidal effect on barnyard grass (H)” value with barnyard grass [2] was 5 (Herbicidal rate of 90% or more (almost completely withered)). In addition, the “herbicidal effect on rice flat sedge (E)” value with rice flat sedge is 4 (Herbicidal rate of 70% or more and less than 90%). The “Herbicidal effect, C: oval-leafed pondweed” value (from here on “Herbicidal effect, C”) in the test with oval-leafed pondweed was 1 (Herbicidal rate of 5% or more and less than 20%). Besides, the “Herbicidal effect by foliage application, O: lambsquarters” value (“Herbicidal effect … lambsquarters” for short) with lambsquarters is 3 (Herbicidal rate of 40% or more and less than 70%). The “Herbicidal effect by foliage application, M: velvetleaf” value (“Herbicidal effect … velvetleaf” below) with velvetleaf was 0 (Herbicidal rate of 5% or less (almost no effect)). Besides, the “Herbicidal effect by foliage application, F: southern crabgrass” value (“Herbicidal effect … southern crabgrass” below) with southern crabgrass is listed as 0 (Herbicidal rate of 5% or less (almost no effect)). In addition, the “Herbicidal effect by foliage application, K: Italian ryegrass” value (“Herbicidal effect … Italian ryegrass” below) with Italian ryegrass was 3 (Herbicidal rate of 40% or more and less than 70%). Further, in the test on wild oat, the “Herbicidal effect by foliage application, I: wild oat” value (from here on “Herbicidal effect … wild oat”) is listed as 0 (Herbicidal rate of 5% or less (almost no effect)).

Take `COc1ccccc1-c1sc2cc(Cl)c(Cl)cc2c1-c1c(O)c(C)nn(C)c1=O` [5-041]: the “Herbicidal effect … P: chickweed” value in the test on chickweed is on record as 5 (Herbicidal rate of 90% or more (almost completely withered)). The “Herbicidal effect … green foxtail” value with green foxtail was 4 (Herbicidal rate of 70% or more and less than 90%). In the test with persian speedwell, the “Herbicidal effect … persian speedwell” value is 3 (Herbicidal rate of 40% or more and less than 70%). Further, in the test on windgrass, the “Herbicidal effect … windgrass” value was 0 (Herbicidal rate of 5% or less (almost no effect)). Besides, the “Herbicidal effect … blackgrass” value in the test with blackgrass is recorded as 0 (Herbicidal rate of 5% or less (almost no effect)). Moreover, the “Herbicidal effect … H: barnyard grass” value in the test with barnyard grass [1] is 3 (Herbicidal rate of 40% or more and less than 70%). Besides, in the test on Chinese sprangletop, the “herbicidal effect … (D)” value is 3 (Herbicidal rate of 40% or more and less than 70%). The “Herbicidal effect, B: Japanese bulrush” value with Japanese bulrush is on record as 5 (Herbicidal rate of 90% or more (almost completely withered)). Also, the “Herbicidal effect … redroot pigweed” value with redroot pigweed is recorded as 5 (Herbicidal rate of 90% or more (almost completely withered)). In addition, the “Herbicidal effect, A: late watergrass” value in the test with late watergrass was 0 (Herbicidal rate of 5% or less (almost no effect)). For the same molecule, the “herbicidal effect on barnyard grass (H)” value in the test on barnyard grass [2] was 4 (Herbicidal rate of 70% or more and less than 90%). Also, the “herbicidal effect on rice flat sedge (E)” value in the test with rice flat sedge was 3 (Herbicidal rate of 40% or more and less than 70%). The “Herbicidal effect, C” value in the test on oval-leafed pondweed is given as 5 (Herbicidal rate of 90% or more (almost completely withered)). Further, the “Herbicidal effect … lambsquarters” value in the test with lambsquarters was 3 (Herbicidal rate of 40% or more and less than 70%). For the same molecule, the “Herbicidal effect … velvetleaf” value with velvetleaf is 4 (Herbicidal rate of 70% or more and less than 90%). Further, the “Herbicidal effect … southern crabgrass” value in the test with southern crabgrass is 3 (Herbicidal rate of 40% or more and less than 70%). In addition, the “Herbicidal effect … Italian ryegrass” value in the test on Italian ryegrass is reported as 0 (Herbicidal rate of 5% or less (almost no effect)). For the same molecule, the “Herbicidal effect … wild oat” value in the test with wild oat is 0 (Herbicidal rate of 5% or less (almost no effect)).

On to `CCOc1ccccc1-c1sc2cc(Cl)c(Cl)cc2c1-c1c(O)c(C)nn(C)c1=O` [5-045], for which the “Herbicidal effect … P: chickweed” value in the test with chickweed is recorded as 5 (Herbicidal rate of 90% or more (almost completely withered)). Also, the “Herbicidal effect … green foxtail” value in the test with green foxtail was 3 (Herbicidal rate of 40% or more and less than 70%). Also, the “Herbicidal effect … persian speedwell” value in the test on persian speedwell is given as 5 (Herbicidal rate of 90% or more (almost completely withered)). The “Herbicidal effect … windgrass” value with windgrass is recorded as 0 (Herbicidal rate of 5% or less (almost no effect)). In addition, the “Herbicidal effect … blackgrass” value with blackgrass is reported as 0 (Herbicidal rate of 5% or less (almost no effect)). Besides, the “Herbicidal effect … H: barnyard grass” value with barnyard grass [1] is 3 (Herbicidal rate of 40% or more and less than 70%). In addition, the “herbicidal effect … (D)” value in the test with Chinese sprangletop is 3 (Herbicidal rate of 40% or more and less than 70%). For the same molecule, in the test on Japanese bulrush, the “Herbicidal effect, B: Japanese bulrush” value is 3 (Herbicidal rate of 40% or more and less than 70%). Also, the “Herbicidal effect … redroot pigweed” value in the test with redroot pigweed is 3 (Herbicidal rate of 40% or more and less than 70%). The “Herbicidal effect, A: late watergrass” value in the test with late watergrass is recorded as 0 (Herbicidal rate of 5% or less (almost no effect)). The “herbicidal effect on barnyard grass (H)” value with barnyard grass [2] is 4 (Herbicidal rate of 70% or more and less than 90%). Moreover, the “herbicidal effect on rice flat sedge (E)” value in the test with rice flat sedge is 3 (Herbicidal rate of 40% or more and less than 70%). Besides, in the test with oval-leafed pondweed, the “Herbicidal effect, C” value is reported as 0 (Herbicidal rate of 5% or less (almost no effect)). For the same molecule, the “Herbicidal effect … lambsquarters” value in the test with lambsquarters was 1 (Herbicidal rate of 5% or more and less than 20%). For the same molecule, in the test with velvetleaf, the “Herbicidal effect … velvetleaf” value is 4 (Herbicidal rate of 70% or more and less than 90%). Further, the “Herbicidal effect … southern crabgrass” value in the test with southern crabgrass was 2 (Herbicidal rate of 20% or more and less than 40%). Also, the “Herbicidal effect … Italian ryegrass” value in the test on Italian ryegrass was 0 (Herbicidal rate of 5% or less (almost no effect)). In the test on wild oat, the “Herbicidal effect … wild oat” value is 0 (Herbicidal rate of 5% or less (almost no effect)).
